The text below walks through data of patent US9982008B2, “Preparation and uses of obeticholic acid” (Intercept Pharmaceuticals, Inc., priority 2012, dated 2018).

For data set [1] the following is noted: 1 week.
Experimental: Briefly, the solid was suspended in water at a low pH (HCl 0.1 mol/L) and left to equilibrate at 25° C. for one week under slightly mixing. The saturate solution was filtered and the concentration of the compound in solution measured by HPLC-ES-MS/MS.
The conditions of data set [2]: rat, in vivo, po, 20 mg/kg.
Experimental: The study described below was carried out to evaluate the plasma kinetics after a single oral administration and the efficiency of the intestinal absorption and the pharmacokinetics of solid non-crystalline and crystalline forms of obeticholic acid. The profiles of obeticholic acid plasma concentration vs time, the tmax, Cmax and AUC after administration of obeticholic acid Form 1 (non-crystalline) or Form F were compared (see FIGS. 37-38)
Obeticholic acid Form 1 (non-crystalline) and Form F were administered to rats and in each animal blood was collected at different period of times for at least 3 hours. Six animals were studied for each form of obeticholic acid.
The formulation was prepared as a suspension in water at pH 4. The study model is adult male Sprague Dawley rats about 225 to about 250 g (Harlan Laboratories). Six animals were used per dosage route. The dosage is PO 20 mg/kg/5 mL. The animals were fasted overnight before treatment with the formulation of obeticholic acid. Oral administration was performed by gastric gavage.
On day one animals were be fitted with a cannula implanted in the left jugular vein (SOP VIVO/SAF6), anaesthesia was obtained by Isoflurane. The experiment was started after one day of recovery from surgery. About 500 μL of blood (250 μL of plasma) was taken via cannula in a heparinised syringe (Na Heparin) and collected immediately in microtubes in an ice/water bath. Within 1 hour, samples were centrifuged at 10000×g for 5 minutes at 4° C. Plasma was immediately transferred in microtubes and stored at −20° C. Samples of blood were collected 30 minutes, 1 hour, 1.3 hour, 2 hours, and 3 hour post-dose. Plasma samples were analyzed using the HPLC-ES/MS/MS quantitative method. Pharmacokinetics study was preformed using non-compartmental methods.
Data set [3] can be described thus: Log P determination by potentiometric titration (octanol/ISA water). It counts as physicochemical. The conditions noted are these: potentiometry. The protocol: Data were collected by potentiometric titration on a Sirius GlpKa instrument using three ratios of octanol: ionic-strength adjusted (ISA) water to generate Log P, Log Pion, and Log D values. The data were refined using Refinement Pro software v1.0. Prediction of Log P values was made using ACD v9 and Syracuse KOWWIN v1.67 software.
Log P was predicted using ACD software then measured by potentiometry. Three titrations were performed at three different octanol/ISA water ratios, giving the difference curve plotted in FIG. 30. The black curve is the pure aqueous pKa titration and the 3 colored curves correspond to the three octanol/ISA water ratios. The shifts in pKa enable determination of Log P.
Log D is the distribution coefficient, representing the combined lipophilicity of all species present at a specific pH. Log P is a compound constant, which corresponds to the partition coefficient of the pure neutral species, while Log Pion is that of the pure ionized species. Log P and Log Pion can be determined from the lipophilicity curve, as the intersection of the Y axis with respectively the tangent at the start of the pH scale (when the molecule is purely in its neutral form) and the tangent at the end of the pH scale (when the molecule is completely ionized).

A short description of data set [4]: pKa determination by potentiometry (methanol/water, Yasuda-Shedlovsky extrapolation). It counts as physicochemical. The conditions noted are these: 25° C., potentiometry with methanol as cosolvent, extrapolated to 0% co-solvent (Yasuda-Shedlovsky). The method, then:
pKa determination data were collected on a Sirius GlpKa instrument with a D-PAS attachment. Measurements were made at 25° C. in aqueous solution by UV and in methanol water mixtures by potentiometry. The titration media was ionic-strength adjusted (ISA) with 0.15 M KCl (aq). The values found in the methanol water mixtures were corrected to 0% co-solvent via a Yasuda-Shedlovsky extrapolation. The data were refined using Refinement Pro software v1.0. Prediction of pKa values was made using ACD pKa prediction software v9.
The pKa of obeticholic acid was measured by potentiometry using methanol as a cosolvent (FIG. 27) and extrapolated to 0% co-solvent using a Yasuda-Shedlovsky extrapolation (FIG. 28). The pKa enables determination of the proportion of the neutral and the ionized form of the compound at a given pH.

Data set [5] is described as follows: Gravimetric Vapor Sorption (GVS). In kind it is physicochemical. The method, then:
Sorption isotherms were obtained using a SMS DVS Intrinsic moisture sorption analyzer, controlled by DVS Intrinsic Control software v 1.0.0.30. The sample temperature was maintained at 25° C. by the instrument controls. The humidity was controlled by mixing streams of dry and wet nitrogen, with a total flow rate of 200 ml·min^−1. The relative humidity was measured by a calibrated Rotronic probe (dynamic range of 1.0-100% RH), located near the sample. The weight change, (mass relaxation) of the sample as a function of % RH (relative humidity) was constantly monitored by the microbalance (accuracy±0.005 mg).
5 to 20 mg of sample was placed in a tared mesh stainless steel basket under ambient conditions. The sample was loaded and unloaded at 40% RH and 25° C. (typical room conditions). A moisture sorption isotherm was performed as outlined below (2 scans giving 1 complete cycle). The standard isotherm was performed at 25° C. at 10% RH intervals over a 0.5-90% RH range. Data analysis was undertaken in Microsoft Excel using DVS Analysis Suite v6.0.0.7. Method Parameters for SMS DVS Intrinsic Experiments are as follows:
The sample was recovered after completion of the isotherm and re-analyzed by XRPD.
Sorption isotherms were obtained using a SMS DVS Intrinsic moisture sorption analyzer, controlled by SMS Analysis Suite software. The sample temperature was maintained at 25° C. by the instrument controls. The humidity was controlled by mixing streams of dry and wet nitrogen, with a total flow rate of 200 ml·min^−1. The relative humidity was measured by a calibrated Rotronic probe (dynamic range of 1.0-100% RH), located near the sample. The weight change, (mass relaxation) of the sample as a function of % RH was constantly monitored by the microbalance (accuracy±0.005 mg).
Typically 5-20 mg of sample was placed in a tared mesh stainless steel basket under ambient conditions. The sample was loaded and unloaded at 40% RH and 25° C. (typical room conditions). A moisture sorption isotherm was performed as outlined below (2 scans giving 1 complete cycle). […]

Turning to `CC[C@H]1[C@@H](O)[C@@H]2[C@H](CC[C@]3(C)[C@@H]([C@H](C)CCC(=O)O)CC[C@@H]23)[C@@]2(C)CC[C@@H](O)C[C@@H]12` [Form F, obeticholic acid], the Water solubility in data set [1] was determined as 9.1 µM. In data set [2], the “Plasma concentration of tauro conjugate, crystalline form compared with Form 1” value was “higher concentration” and the “Plasma obeticholic acid concentration after 3 hours relative to Cmax” value was “almost half of the Cmax”. In data set [2] (pH 4), the “Time after which Cmax is achieved” value was 1.5 h.
With obeticholic acid [Form 1], the “Measured LogD7.4” value in data set [3] (octanol/ISA water, pH 7.4) is listed as 2.98. In data set [3] (octanol/ISA water, pure ionized species), the “Measured LogPion” value was 1.58. Also, the “Measured LogP” value in data set [3] (three octanol/ISA water ratios) is recorded as 5.54. Also, the “Measured pKa” value in data set [4] is given as 4.82. For the same compound, the “GVS water uptake / weight change” value in data set [5] (25° C., 0 to 90% RH) is reported as 3.8%. In data set [5] (25° C., 0 to 90% RH, in words), the “Hygroscopicity (GVS)” value was “moderately hygroscopic”. Besides, the “XRPD analysis after GVS” value in data set [5] (sample recovered after isotherm) is listed as “still non-crystalline”. Besides, in data set [2], the “Cmax, Form 1 compared with Form F” value is given as “lower”; the “Time of early plasma concentration peak” value was 30 min; the “Time of second plasma concentration peak” value stood at 2 h.
